Measured values from patent publication US8323704B2, “Process for preparation of extract of Decalepis hamiltonii having antioxidant activity” (Council of Scientific and Industrial Research, priority 2003, dated 2012).

Assays:
[1] = Antioxidant assay using β-Carotene Linoleate model System (β CLAMS); assay type: biochemical; details: bleaching of β carotene, 180 min, 50° C.
From the text: Antioxidant assay using β-Carotene Linoleate model System (β CLAMS) (Hidalgo et al., 1994)
This is one of the rapid methods to screen antioxidants, which is mainly based on principle that Linoleic acid which is an unsaturated fatty acid gets oxidized by “Reactive Oxgen Species” (ROS) produced by oxygenated water. The products formed will initiate the β-Carotene oxidation, which leads to discoloration.
Due to insolubility of β-Carotene in water, it is first made into emulsion. β-Carotene is dissolved in chloroform and using Tween-40 (Polyoxyethylene sorbotan manonitrate) as surfactant, it was mixed with Linoleic acid to form emulsion. The resulting mixture is diluted with triple distilled water (1 part) and mixed well. This emulsion is further made up with oxygenated water (4 parts) which initiates the process of oxidation immediately. It is transferred to tubes containing samples. Initial (zero min) reading is read, followed by recording the absorbance at 15 min intervals at 470 nm. All tubes were placed in water bath at 50° C. throughout the experiment.
β Carotene linoleic acid emulsion mixture—100 ml (Jayaprakash et al., 2000) […]
[…] Absorbance of all samples were taken at 470 nm at Zero time and tubes were placed at 50° C. in water bath., Measurement of Absorbance was continued at an interval of 15 minutes, till the colour of β carotene disappeared in the control reaction (t=180 min). […] Dose response of antioxidant activity for various extracts was determined at different concentrations.
The antioxidant activity (% AA) of extracts was evaluated in terms of bleaching of β Carotene using the following formula (Hidalgo et al, 1994).
Each experiment was carried out in triplicate and the deviation of absorbance value was less than 10%. % AA=100[1-(A^0-A^t)/A^00-A^0t)] […]
A^0=Zero time absorbance of sample
A^t=Absorbance of sample after incubation for 180 min
A^00=Zero time absorbance of control
A^t0=Absorbance of control after incubation for 180 min.
And results were expressed as % Antioxidant activity.

[2] = Free radical scavenging activity using D.P.P.H as stable free radical; assay type: biochemical; details: 20 minutes, 517 nm
Description: Schematic representation of chemically stable radical scavenging activity using D.P.P.H as stable free radical: (Blios, 1958)
Free radical scavenging potentials of the extracts were tested against a methanolic solution of α,α-diphenyl-β-picryl hydrazyl (D.P.P.H). Antioxidants reacts with D.P.P.H. and convert it to α,α-diphenyl-β-picryl hydrazine. The degree of discoloration indicates the scavenging potentials of the antioxidant extract. The change in the absorbance produced at 517 nm has been used as a measure of antioxidant activity.
• Methanolic solution of D.P.P.H (100 μM): 39.4 mg of D.P.P.H was dissolved in one liter of analytical grade methanol. • Preparation of the extract solutions: 55 mg of the extract was dissolved in 10 ml of methanol and filtered; the filtrate was used for the experiments. Method:
Aliquots of 0.025, 0.05, 0.1 ml of extracts and standard were taken in different test tubes. To this 5 ml of methanolic solution of D.P.P.H was added, shaken well and the mixture was allowed to stand at room temperature for 20 minutes. The blank was prepared as above without extract. […] The absorbance of blank was first noted at 517 nm. The change of absorbance of the samples was measured.
Scavenging activity was expressed as the inhibition percentage calculated using the following formula, […]

COc1ccc(O)c(C(C)(C)C)c1 [Standard BHA, butylated hydroxy anisole]
% Activity ± S.D (antioxidant activity, % AA) ([1]; 100 ppm): 84.3% | % Activity ± S.D (antioxidant activity, % AA) ([1]; 500 ppm): 88.6% | % Activity ± S.D (antioxidant activity, % AA) ([1]; 1000 ppm): 90.1%

α,α-diphenyl-β-picryl hydrazyl [Standard D.P.P.H]
% Activity ± S.D (anti-radical activity, inhibition percentage) ([2]; 100 ppm): 88.3% | % Activity ± S.D (anti-radical activity, inhibition percentage) ([2]; 500 ppm): 92.6% | % Activity ± S.D (anti-radical activity, inhibition percentage) ([2]; 1000 ppm): 94.3%
